# Assay results from the supplement of paper PMC10307832.
# Assays:
# Assay in all cases: relative viability (nuclei count vs DMSO), 5 days (fraction); higher = more cells survive
# [1] = test system: NCI-H838
# Procedure, shortened: (§1)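 Lung cancer cell lines were pin-tool dosed in 1536-well plates on the day after seeding, with either a lone drug or a fixed anchor-drug dose plus five library-drug doses (not always all listed) in √10 steps. Nuclei were counted on 4× images after 5 days. Relative viability is the ratio of treated-well to vehicle-well nuclei counts, with each value a median of duplicate plates.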
# [2] = test system: HCC-78
# Procedure, shortened: as §1
# [3] = test system: EKVX
# Procedure, shortened: as §1
# [4] = test system: HOP-62
# Procedure, shortened: as §1
# [5] = test system: NCI-H2087
# Procedure, shortened: as §1
# [6] = test system: NCI-H1395
# Procedure, shortened: as §1
# [7] = test system: LOU-NH91
# Procedure, shortened: as §1
# [8] = test system: HCC-44
# Procedure, shortened: as §1
# [9] = test system: ChaGo-K-1
# Procedure, shortened: as §1
# [10] = test system: SK-MES-1
# Procedure, shortened: as §1
# [11] = test system: HCC-366
# Procedure, shortened: as §1
# [12] = test system: COR-L23
# Procedure, shortened: as §1
# [13] = test system: A-427
# Procedure, shortened: as §1
# [14] = test system: NCI-H1915
# Procedure, shortened: as §1
# [15] = test system: NCI-H1650
# Procedure, shortened: as §1
# [16] = test system: NCI-H1734
# Procedure, shortened: as §1
# [17] = test system: NCI-H2023
# Procedure, shortened: as §1
# [18] = test system: EPLC-272H
# Procedure, shortened: as §1
# [19] = test system: NCI-H596
# Procedure, shortened: as §1
# [20] = test system: NCI-H3122
# Procedure, shortened: as §1
# [21] = test system: NCI-H661
# Procedure, shortened: as §1
# [22] = test system: NCI-H650
# Procedure, shortened: as §1
structure (smiles),measurement,setting,value
O=c1[nH]c2ccccc2n1C1CCN(CCCC(c2ccc(F)cc2)c2ccc(F)cc2)CC1 [Pimozide] + CC1(C)CCC(c2ccc(Cl)cc2)=C(CN2CCN(c3ccc(C(=O)NS(=O)(=O)c4ccc(N[C@H](CCN5CCOCC5)CSc5ccccc5)c(S(=O)(=O)C(F)(F)F)c4)cc3)CC2)C1 [Navitoclax] (partner 0.5 µM),relative viability,[1]; first compound 0.08 µM,1.18
same,relative viability,[1]; first compound 0.253 µM,1.12
same,relative viability,[1]; first compound 0.8 µM,1.01
same,relative viability,[1]; first compound 2.53 µM,1.11
same,relative viability,[1]; first compound 8 µM,1.16
same,relative viability,[2]; first compound 0.08 µM,0.764
same,relative viability,[2]; first compound 0.253 µM,0.717
same,relative viability,[2]; first compound 0.8 µM,0.893
same,relative viability,[2]; first compound 2.53 µM,0.71
same,relative viability,[2]; first compound 8 µM,0.691
same,relative viability,[3]; first compound 0.253 µM,0.936
same,relative viability,[3]; first compound 0.8 µM,0.881
same,relative viability,[3]; first compound 2.53 µM,0.89
same,relative viability,[3]; first compound 8 µM,0.946
same,relative viability,[4]; first compound 0.08 µM,1.11
same,relative viability,[4]; first compound 0.253 µM,0.851
same,relative viability,[4]; first compound 0.8 µM,0.812
same,relative viability,[4]; first compound 2.53 µM,1.03
same,relative viability,[4]; first compound 8 µM,0.903
same,relative viability,[5]; first compound 0.08 µM,0.972
same,relative viability,[5]; first compound 0.253 µM,0.98
same,relative viability,[5]; first compound 0.8 µM,0.878
same,relative viability,[5]; first compound 2.53 µM,0.997
same,relative viability,[5]; first compound 8 µM,0.931
same,relative viability,[6]; first compound 0.08 µM,1.08
same,relative viability,[6]; first compound 0.253 µM,1.15
same,relative viability,[6]; first compound 0.8 µM,1.34
same,relative viability,[6]; first compound 2.53 µM,1.1
same,relative viability,[6]; first compound 8 µM,1.3
same,relative viability,[7]; first compound 0.08 µM,0.309
same,relative viability,[7]; first compound 0.253 µM,0.734
same,relative viability,[7]; first compound 0.8 µM,0.736
same,relative viability,[7]; first compound 2.53 µM,0.788
same,relative viability,[7]; first compound 8 µM,0.739
same,relative viability,[8]; first compound 0.08 µM,0.965
same,relative viability,[8]; first compound 0.253 µM,1
same,relative viability,[8]; first compound 0.8 µM,0.95
same,relative viability,[8]; first compound 2.53 µM,0.884
same,relative viability,[8]; first compound 8 µM,0.971
same,relative viability,[9]; first compound 0.08 µM,0.861
same,relative viability,[9]; first compound 0.253 µM,0.935
same,relative viability,[9]; first compound 0.8 µM,0.974
same,relative viability,[9]; first compound 2.53 µM,1.01
same,relative viability,[9]; first compound 8 µM,0.941
same,relative viability,[10]; first compound 0.08 µM,1.31
same,relative viability,[10]; first compound 0.253 µM,1.25
same,relative viability,[10]; first compound 0.8 µM,1.18
same,relative viability,[10]; first compound 2.53 µM,1.21
same,relative viability,[10]; first compound 8 µM,1.08
same,relative viability,[11]; first compound 0.08 µM,1.01
same,relative viability,[11]; first compound 0.253 µM,1.12
same,relative viability,[11]; first compound 0.8 µM,1.02
same,relative viability,[11]; first compound 2.53 µM,0.986
same,relative viability,[11]; first compound 8 µM,0.976
same,relative viability,[12]; first compound 0.08 µM,1.02
same,relative viability,[12]; first compound 0.253 µM,0.923
same,relative viability,[12]; first compound 0.8 µM,0.913
same,relative viability,[12]; first compound 2.53 µM,1.14
same,relative viability,[12]; first compound 8 µM,0.933
same,relative viability,[13]; first compound 0.08 µM,0.965
same,relative viability,[13]; first compound 0.253 µM,1.01
same,relative viability,[13]; first compound 0.8 µM,0.913
same,relative viability,[13]; first compound 2.53 µM,0.88
same,relative viability,[13]; first compound 8 µM,0.918
same,relative viability,[14]; first compound 0.08 µM,0.784
same,relative viability,[14]; first compound 0.253 µM,0.705
same,relative viability,[14]; first compound 0.8 µM,0.777
same,relative viability,[14]; first compound 2.53 µM,0.777
same,relative viability,[14]; first compound 8 µM,0.786
same,relative viability,[15]; first compound 0.08 µM,0.979
same,relative viability,[15]; first compound 0.253 µM,1.17
same,relative viability,[15]; first compound 0.8 µM,1.02
same,relative viability,[15]; first compound 2.53 µM,1.21
same,relative viability,[15]; first compound 8 µM,0.761
same,relative viability,[16]; first compound 0.08 µM,0.894
same,relative viability,[16]; first compound 0.253 µM,0.806
same,relative viability,[16]; first compound 0.8 µM,0.764
same,relative viability,[16]; first compound 2.53 µM,0.83
same,relative viability,[16]; first compound 8 µM,0.836
same,relative viability,[17]; first compound 0.08 µM,1.03
same,relative viability,[17]; first compound 0.253 µM,1.03
same,relative viability,[17]; first compound 0.8 µM,0.988
same,relative viability,[17]; first compound 2.53 µM,0.957
same,relative viability,[17]; first compound 8 µM,0.832
same,relative viability,[18]; first compound 0.08 µM,0.979
same,relative viability,[18]; first compound 0.253 µM,1.16
same,relative viability,[18]; first compound 0.8 µM,1.13
same,relative viability,[18]; first compound 2.53 µM,1.03
same,relative viability,[18]; first compound 8 µM,0.967
same,relative viability,[19]; first compound 0.08 µM,0.92
same,relative viability,[19]; first compound 0.253 µM,0.963
same,relative viability,[19]; first compound 0.8 µM,0.94
same,relative viability,[19]; first compound 2.53 µM,0.677
same,relative viability,[19]; first compound 8 µM,0.9
same,relative viability,[20]; first compound 0.08 µM,0.987
same,relative viability,[20]; first compound 0.253 µM,1.06
same,relative viability,[20]; first compound 0.8 µM,1.04
same,relative viability,[20]; first compound 2.53 µM,0.982
same,relative viability,[20]; first compound 8 µM,0.957
O=c1[nH]c2ccccc2n1C1CCN(CCCC(c2ccc(F)cc2)c2ccc(F)cc2)CC1 [Pimozide] + CC(C)C[C@H](NC(=O)[C@H](Cc1ccccc1)NC(=O)c1cnccn1)B(O)O [Bortezomib] (partner 0.002 µM),relative viability,[1]; first compound 0.08 µM,0.786
same,relative viability,[1]; first compound 0.253 µM,0.737
same,relative viability,[1]; first compound 0.8 µM,0.786
same,relative viability,[1]; first compound 2.53 µM,0.745
same,relative viability,[1]; first compound 8 µM,0.684
same,relative viability,[2]; first compound 0.08 µM,0.408
same,relative viability,[2]; first compound 0.253 µM,0.417
same,relative viability,[2]; first compound 0.8 µM,0.409
same,relative viability,[2]; first compound 2.53 µM,0.443
same,relative viability,[2]; first compound 8 µM,0.336
same,relative viability,[3]; first compound 0.253 µM,1.11
same,relative viability,[3]; first compound 0.8 µM,0.992
same,relative viability,[3]; first compound 2.53 µM,0.994
same,relative viability,[3]; first compound 8 µM,0.937
same,relative viability,[4]; first compound 0.08 µM,0.935
same,relative viability,[4]; first compound 0.253 µM,0.889
same,relative viability,[4]; first compound 2.53 µM,0.749
same,relative viability,[4]; first compound 8 µM,1.02
same,relative viability,[5]; first compound 0.08 µM,0.86
same,relative viability,[5]; first compound 0.253 µM,0.815
same,relative viability,[5]; first compound 0.8 µM,0.764
same,relative viability,[5]; first compound 2.53 µM,0.765
same,relative viability,[5]; first compound 8 µM,0.585
same,relative viability,[7]; first compound 0.08 µM,0.498
same,relative viability,[7]; first compound 0.253 µM,0.528
same,relative viability,[7]; first compound 0.8 µM,0.529
same,relative viability,[7]; first compound 2.53 µM,0.504
same,relative viability,[7]; first compound 8 µM,0.479
same,relative viability,[8]; first compound 0.08 µM,0.874
same,relative viability,[8]; first compound 0.253 µM,0.788
same,relative viability,[8]; first compound 0.8 µM,0.856
same,relative viability,[8]; first compound 2.53 µM,0.975
same,relative viability,[8]; first compound 8 µM,0.877
same,relative viability,[9]; first compound 0.08 µM,1.01
same,relative viability,[9]; first compound 0.253 µM,0.883
same,relative viability,[9]; first compound 0.8 µM,0.977
same,relative viability,[9]; first compound 2.53 µM,1.01
same,relative viability,[9]; first compound 8 µM,0.872
same,relative viability,[11]; first compound 0.08 µM,1.01
same,relative viability,[11]; first compound 0.253 µM,0.999
same,relative viability,[11]; first compound 0.8 µM,0.985
same,relative viability,[11]; first compound 2.53 µM,1.03
same,relative viability,[11]; first compound 8 µM,1.01
same,relative viability,[12]; first compound 0.08 µM,0.965
same,relative viability,[12]; first compound 0.253 µM,0.945
same,relative viability,[12]; first compound 0.8 µM,0.956
same,relative viability,[12]; first compound 2.53 µM,0.967
same,relative viability,[12]; first compound 8 µM,0.964
same,relative viability,[21]; first compound 0.08 µM,0.672
same,relative viability,[21]; first compound 0.253 µM,0.699
same,relative viability,[21]; first compound 0.8 µM,0.719
same,relative viability,[21]; first compound 2.53 µM,0.725
same,relative viability,[21]; first compound 8 µM,0.852
same,relative viability,[13]; first compound 0.08 µM,0.947
same,relative viability,[13]; first compound 0.253 µM,0.965
same,relative viability,[13]; first compound 0.8 µM,0.965
same,relative viability,[13]; first compound 2.53 µM,0.956
same,relative viability,[13]; first compound 8 µM,0.903
same,relative viability,[14]; first compound 0.08 µM,0.947
same,relative viability,[14]; first compound 0.253 µM,0.908
same,relative viability,[14]; first compound 0.8 µM,0.537
same,relative viability,[14]; first compound 2.53 µM,0.936
same,relative viability,[14]; first compound 8 µM,0.918
same,relative viability,[15]; first compound 0.08 µM,0.23
same,relative viability,[15]; first compound 0.253 µM,0.204
same,relative viability,[15]; first compound 0.8 µM,0.188
same,relative viability,[15]; first compound 2.53 µM,0.177
same,relative viability,[15]; first compound 8 µM,0.178
same,relative viability,[16]; first compound 0.08 µM,0.903
same,relative viability,[16]; first compound 0.253 µM,0.958
same,relative viability,[16]; first compound 0.8 µM,0.916
same,relative viability,[16]; first compound 2.53 µM,0.993
same,relative viability,[16]; first compound 8 µM,0.844
same,relative viability,[22]; first compound 0.08 µM,0.797
same,relative viability,[22]; first compound 0.253 µM,0.787
same,relative viability,[22]; first compound 0.8 µM,0.704
same,relative viability,[22]; first compound 2.53 µM,0.718
same,relative viability,[22]; first compound 8 µM,0.747
same,relative viability,[17]; first compound 0.08 µM,0.973
same,relative viability,[17]; first compound 0.253 µM,0.996
same,relative viability,[17]; first compound 0.8 µM,0.74
same,relative viability,[17]; first compound 2.53 µM,0.884
same,relative viability,[17]; first compound 8 µM,0.581
same,relative viability,[18]; first compound 0.08 µM,0.974
same,relative viability,[18]; first compound 0.253 µM,1.04
same,relative viability,[18]; first compound 0.8 µM,0.826
same,relative viability,[18]; first compound 2.53 µM,0.828
same,relative viability,[18]; first compound 8 µM,0.91
same,relative viability,[19]; first compound 0.08 µM,0.974
same,relative viability,[19]; first compound 0.253 µM,0.968
same,relative viability,[19]; first compound 0.8 µM,1
same,relative viability,[19]; first compound 2.53 µM,0.994
same,relative viability,[19]; first compound 8 µM,0.935
same,relative viability,[20]; first compound 0.08 µM,0.983
same,relative viability,[20]; first compound 0.253 µM,0.959
same,relative viability,[20]; first compound 0.8 µM,1.01
same,relative viability,[20]; first compound 2.53 µM,0.981
same,relative viability,[20]; first compound 8 µM,1.01
